Reference: patent US4007276A, “Triazolo isoindole derivatives” (Gruppo Lepetit, S.p.A., priority 1973, dated 1977)
≈ marks a conversion by molar mass, not a printed value.

Experiments:
[1] = system: female Syrian golden hamsters; experiment: anti-fertility activity in pregnant hamsters; format: in vivo, hamster (Syrian golden); conditions: Mesocricetus auratus, sc, 5 mg/kg s.c., day 4 through day 8, autopsy day 14 of pregnancy, read-out: treated animals in which the number of live fetuses was either eliminated or severely reduced
Protocol: The anti-fertility activity of these compounds in rats was also confirmed in other species including mice, hamsters, rabbits, dogs, monkeys and baboons. With hamsters, the same criteria and conditions are followed as for testing in rats, with the exception that the animals (female Syrian golden hamsters weighing 100 to 130 g) are treated on day 4 through day 8 with 5 mg/kg s.c. of the test compound and are autopsied on day 14 of pregnancy.

[2] = system: female Sprague-Dawley rats; experiment: anti-fertility activity in pregnant rats; format: in vivo, rat (Sprague-Dawley)
Protocol: Representative experiments for assessing anti-fertility activity are carried out with female Sprague-Dawley rats weighing 200-230 g. They were mated with proven fertile males. The presence of sperm in the vagina of these animals is evidence of mating and is also considered as being day one of pregnancy. Pregnancy is confirmed at the time of autopsy by the presence of fetuses or implantation sites in the uterus. Even when animals abort the fetuses, implantation scars remain as evidence that the animal had been pregnant.
[…] These animals were autopsied on day 16 of pregnancy and the uteri were examined for evidence of pregnancy and termination of pregnancy such as implantation sites, live or resorbing fetuses and hemorrage as well as abnormalities of the uterus, placenta or fetuses. A compound is considered to be active if there is a reduction of live fetuses in at least 60% of the treated animals and the presence of implantation sites proves the animals to have been pregnant.

[3] = system: baboons; experiment: anti-fertility test in baboons; format: in vivo, baboon
[4] = system: carrageenin induced edema; experiment: carrageenin induced edema of the rat hind paw (anti-inflammatory); format: in vivo; conditions: rats
Protocol: The anti-inflammatory activity of some representative compounds of formula I as hereinbefore described was evidenced by means of the carrageenin tests in rats. This test is carried out in the hind paw of the rat which paw has been inflammed by injection of carrageenin according to the technique described by C.A. Winter and coworker, Proc. Soc. Exptl. Biol. Med. III, 554 (1962). In following Table I are reported the percent inhibition of the carrageenin induced edema at the dose level indicated for each compound.

[5] = system: pain threshold of the rats; experiment: analgesic activity, Randall and Selitto procedure, pain threshold; format: in vivo, rat; conditions: 50 mg/kg i.p.
Protocol: The analgesic activity of representative compounds as hereinbefore described was assessed in rats by following essentially the procedure described by L. O. Randall and J. J. Selitto, Arch. Int. Pharmacodyn., 111, 409 (1957).

[6] = system: conditioned rats; experiment: secondary conditioned avoidance response test (anti-anxiety); format: in vivo, rat
Protocol: The CNS depressant properties of compounds hereinbefore described were investigated according to the Irwin method and in particular the anti-anxiety effect was evaluated on the basis of the secondary conditioned avoidance response test. A specific anti-anxiety effect was evidenced by administering to conditioned rats doses of 15-60 mg/kg i.p. of representative said compounds of the invention.
Following Table II indicates the ratio of the rats which are deconditioned after administration of predetermined amounts of said representative compounds: […]

[7] = toxicity, LD50 i.p. in mice; conditions: mouse, in vivo, ip
[8] = system: Mycobacterium tubercolosis H37 Rv; experiment: minimal inhibitory concentration, bacterial growth; format: cell-based; conditions: H37RV, read-out: M.I.C. (minimal inhibitory concentration)
Protocol: In evaluating the antimicrobial utility of representative compounds as hereinbefore described, the minimal concentration of substance inhibiting bacterial growth (M.I.C.=minimal inhibitory concentration) was determined.

With `Clc1ccc2c(c1)-c1nc(-c3ccccc3)nn1C2` [8-Chloro-2-phenyl-5H-s-triazolo[5,1-a]isoindole] the responders at 5 mg/kg [1] was ≥ 60%.

For `COc1cccc(-c2nc3n(n2)Cc2ccccc2-3)c1` [2-(m-Methoxyphenyl)-5H-s-triazolo[5,1-a]isoindole], the responders at 5 mg/kg [1] was ≥ 60%, the “% Animals Aborting” value ([2]; 0.155 mg/kg/day s.c.) was 0% and the “% Animals Aborting” value ([2]; 0.31 mg/kg/day s.c.) was 0%. For the same molecule, the “% Animals Aborting” value ([2]; 0.62 mg/kg/day s.c.) was 38.5%, the “% Animals Aborting” value ([2]; 1.25 mg/kg/day s.c.) was 70.8% and the “% Animals Aborting” value ([2]; 2.5 mg/kg/day s.c.) was 100%. For the same molecule, the “% Animals Aborting” value ([2]; 5 mg/kg/day s.c.) was 100% and the induced abortion [3] was “induced abortion in every animal studied”.

With `Sc1nc2n(n1)Cc1ccccc1-2` [g, 2-sulfhydryl-5H-s-triazolo[5,1-a]isoindole] the “Per Cent Inhibition of the Edema” value ([4]; 50 mg/Kg p.o.) was 39 Per Cent and the “Per Cent Inhibition of the Edema” value ([4]; 100 mg/Kg p.o.) was 49 Per Cent.

In the case of `COc1ccc(-c2nc3n(n2)Cc2ccccc2-3)cc1` [2-(p-Methoxyphenyl)-5H-s-triazolo[5,1-a]isoindole], the responders at 5 mg/kg [1] is reported as ≥ 60%.

For `COc1cccc(-c2nc3n(n2)Cc2cc(OC)c(OC)cc2-3)c1` [7,8-Dimethoxy-2-(m-methoxyphenyl)-5H-s-triazolo[5,1-a]isoindole], the responders at 5 mg/kg [1] was ≥ 60%.

For `Clc1ccc2c(c1)Cn1nc(-c3ccccc3)nc1-2` [7-Chloro-2-phenyl-5H-s-triazolo[5,1-a]isoindole], the responders at 5 mg/kg [1] was ≥ 60%.

For `Oc1cccc(-c2nc3n(n2)Cc2ccccc2-3)c1` [2-(m-Hydroxyphenyl)-5H-s-triazolo[5,1-a]isoindole], the responders at 5 mg/kg [1] was ≥ 60%.

With `Cc1cccc(-c2nc3n(n2)Cc2ccccc2-3)c1` [2-(m-Tolyl)-5H-s-triazolo[5,1-a]isoindole] the responders at 5 mg/kg [1] was ≥ 60%.

In the case of `Cc1ccc(-c2nc3n(n2)Cc2ccccc2-3)cc1` [2-(p-Tolyl)-5H-s-triazolo[5,1-a]isoindole], the responders at 5 mg/kg [1] is reported as ≥ 60%.

In the case of `Clc1cccc(-c2nc3n(n2)Cc2ccccc2-3)c1` [2-(m-Chlorophenyl)-5H-s-triazolo[5,1-a]isoindole], the responders at 5 mg/kg [1] is reported as ≥ 60%.

With `CCCCc1nc2n(n1)Cc1ccccc1-2` [a, 2-n-butyl-5H-s-triazolo[5,1-a]isoindole] the “Per Cent Inhibition of the Edema” value ([4]; 100 mg/Kg p.o.) was 28 Per Cent.

With `c1cncc(-c2nc3n(n2)Cc2ccccc2-3)c1` [2-(3-pyridyl)-5H-s-triazolo[5,1-aisoindole] the “increase of the pain threshold of the rats” value [5] was 70% and the toxic effect [5] was “without provoking any toxic effect”.

With `CCCOc1cccc(-c2nc3n(n2)Cc2ccccc2-3)c1` [2-(m-Propoxyphenyl)-5H-s-triazolo[5,1-a]isoindole] the responders at 5 mg/kg [1] was ≥ 60%, the “% Animals Aborting” value ([2]; 1 mg/kg/day s.c.) was 20% and the “% Animals Aborting” value ([2]; 1.25 mg/kg/day s.c.) was 60%. For the same molecule, the “% Animals Aborting” value ([2]; 2.5 mg/kg/day s.c.) was 77.8% and the “% Animals Aborting” value ([2]; 5 mg/kg/day s.c.) was 100%.

For `CC(=O)Nc1nc2n(n1)Cc1ccccc1-2` [c, 2-acetamido-5H-s-triazolo[5,1-a]isoindole], the “Per Cent Inhibition of the Edema” value ([4]; 50 mg/Kg p.o.) was 35 Per Cent and the “Per Cent Inhibition of the Edema” value ([4]; 100 mg/Kg p.o.) was 54 Per Cent.

For `CN(C)c1cccc(-c2nc3n(n2)Cc2ccccc2-3)c1` [2-(m-Dimethylaminophenyl)-5H-s-triazolo[5,1-a]isoindole], the responders at 5 mg/kg [1] was ≥ 60%.

With `O=C(Nc1nc2n(n1)Cc1ccccc1-2)c1ccccc1` [f, 2-benzoylamino-5H-s-triazolo[5,1-a]isoindole] the “Per Cent Inhibition of the Edema” value ([4]; 100 mg/Kg p.o.) was 28 Per Cent.

For `Cc1nc2n(n1)Cc1ccccc1-2` [2-Methyl-5H-s-triazolo[5,1-a]isoindole], the Deconditioned / treated ([6]; 15 mg/kg i.p.) was 6/10, the Deconditioned / treated ([6]; 30 mg/kg i.p.) was 7/10 and the LD50 [7] was > 400 mg/kg.

For `COc1ccc2c(c1)-c1nc(-c3ccccc3)nn1C2` [8-Methoxy-2-phenyl-5H-s-triazolo[5,1-a]isoindole], the responders at 5 mg/kg [1] was ≥ 60%.

For `CCOc1cccc(-c2nc3n(n2)Cc2ccccc2-3)c1` [2-(m-Ethoxyphenyl)-5H-s-triazolo[5,1-a]isoindole], the responders at 5 mg/kg [1] was ≥ 60%, the “% Animals Aborting” value ([2]; 1 mg/kg/day s.c.) was 33.3% and the “% Animals Aborting” value ([2]; 1.25 mg/kg/day s.c.) was 62.5%. The “% Animals Aborting” value ([2]; 2.5 mg/kg/day s.c.) was 85.7% and the “% Animals Aborting” value ([2]; 5 mg/kg/day s.c.) was 100%.

In the case of `COc1cccc(-c2nc3n(n2)Cc2cc(OC)ccc2-3)c1` [7-Methoxy-2-(m-methoxyphenyl)-5H-s-triazolo[5,1-a]isoindole], the responders at 5 mg/kg [1] is reported as ≥ 60%.

For `FC(F)(F)c1cccc(-c2nc3n(n2)Cc2ccccc2-3)c1` [2-(m-Trifluoromethylphenyl)-5H-s-triazolo[5,1-a]isoindole], the responders at 5 mg/kg [1] was ≥ 60%.

Work on `CCOC(=O)NC(=S)Nc1nc2n(n1)Cc1ccccc1-2` [2-carbethoxythioureido-5H-s-triazolo[5,1-a]isoindole] yielded an MIC [8] of 5 µg/mL (≈ 16.5 µM).

For `c1ccc(-c2nc3n(n2)Cc2ccccc2-3)cc1` [2-Phenyl-5H-s-triazolo[5,1-a]isoindole], the responders at 5 mg/kg [1] was ≥ 60%, the “% Animals Aborting” value ([2]; 1.25 mg/kg/day s.c.) was 20% and the “% Animals Aborting” value ([2]; 2.5 mg/kg/day s.c.) was 80%.

For `CC(=O)N(C(C)=O)c1nc2n(n1)Cc1ccccc1-2` [d, 2-diacetylamino-5H-s-triazolo[5,1-a]isoindole], the “Per Cent Inhibition of the Edema” value ([4]; 50 mg/Kg p.o.) was 34 Per Cent and the “Per Cent Inhibition of the Edema” value ([4]; 100 mg/Kg p.o.) was 53 Per Cent.

For `Nc1nc2n(n1)Cc1ccccc1-2` [2-Amino-5H-s-triazolo[5,1-a]isoindole], the Deconditioned / treated ([6]; 30 mg/kg i.p.) was 8/10 and the LD50 [7] was 600 mg/kg.

For `Fc1cccc(-c2nc3n(n2)Cc2ccccc2-3)c1` [2-(m-Fluorophenyl)-5H-s-triazolo[5,1-a]isoindole], the responders at 5 mg/kg [1] was ≥ 60%.

In the case of `c1ccc2c(c1)Cn1nc(-c3ccc4c(c3)OCO4)nc1-2` [2-(3,4-Methylenedioxyphenyl)-5H-s-triazolo[5,1-a]isoindole], the responders at 5 mg/kg [1] is reported as ≥ 60%, the “% Animals Aborting” value ([2]; 1 mg/kg/day s.c.) is reported as 0% and the “% Animals Aborting” value ([2]; 1.25 mg/kg/day s.c.) is reported as 25%. The “% Animals Aborting” value ([2]; 2.5 mg/kg/day s.c.) was 66.7% and the “% Animals Aborting” value ([2]; 5 mg/kg/day s.c.) was 100%.

For `c1ccc(COc2cccc(-c3nc4n(n3)Cc3ccccc3-4)c2)cc1` [2-(m-Benzyloxyphenyl)-5H-s-triazolo[5,1-a]isoindole], the responders at 5 mg/kg [1] was ≥ 60%.

For `NC(=O)Nc1nc2n(n1)Cc1ccccc1-2` [e, 2-ureido-5H-s-triazolo[5,1-a]isoindole], the “Per Cent Inhibition of the Edema” value ([4]; 100 mg/Kg p.o.) was 29 Per Cent.

In the case of `Fc1ccc(-c2nc3n(n2)Cc2ccccc2-3)cc1` [2-(p-Fluorophenyl)-5H-s-triazolo[5,1-a]isoindole], the responders at 5 mg/kg [1] is reported as ≥ 60%.

For `COc1cccc(-c2nc3n(n2)Cc2cc(Cl)ccc2-3)c1` [7-Chloro-2-(m-methoxyphenyl)-5H-s-triazolo[5,1-a]isoindole], the responders at 5 mg/kg [1] was ≥ 60%.

With `Clc1ccc(-c2nc3n(n2)Cc2ccccc2-3)cc1` [2-(p-Chlorophenyl)-5H-s-triazolo[5,1-a]isoindole] the responders at 5 mg/kg [1] was ≥ 60%.

In the case of `COc1cccc(-c2nc3n(n2)Cc2ccc(Cl)cc2-3)c1` [8-Chloro-2-(m-methoxyphenyl)-5H-s-triazolo[5,1-a]isoindole], the responders at 5 mg/kg [1] is reported as ≥ 60%.

In the case of `COc1cccc(-c2nc3n(n2)Cc2ccc(OC)cc2-3)c1` [8-Methoxy-2-(m-methoxyphenyl)-5H-s-triazolo[5,1-a]isoindole], the responders at 5 mg/kg [1] is reported as ≥ 60%, the “% Animals Aborting” value ([2]; 2.5 mg/kg/day s.c.) is reported as 57.1% and the “% Animals Aborting” value ([2]; 5 mg/kg/day s.c.) is reported as 100%.
